This is an account of results in patent US20240377291A1, “AZETIDINE SUBSTITUTED ROSAMINES USEFUL FOR STAINING MITOCHONDRIA” (TOCRIS COOKSON LIMITED, priority 2021, published 2024).

Common to all, as to format: cell-based
For series [1], the system named is mitochondria in HeLa cells. Description: Co-staining of COMPOUND 5 with DRP1 antibody NBP2-23489 on fixed, permeabilized HeLa cells. To be noted: 200 nM, 15 minutes, room temperature. The method, then:
NBP2-23489 was incubated on fixed, permeabilized HeLa cells at 8 μg/mL for 2 hours at room temperature. Cells were then incubated with an NL557 secondary antibody (R&D Systems; Catalog #NL007) for 1 hour at room temperature protected from light. Lastly, cells were incubated with COMPOUND 5 at 200 nM for 15 minutes at room temperature protected from light. Cells were cover-slipped with a DAPI-containing mounting media and imaged. Antibody staining was pseudo-coloured green, and mitochondrial marker staining was pseudo-coloured red.

The test system of series [2] is mitochondria in COS-7 cells. Put plainly: Mitochondrial membrane de-polarisation experiments (CCCP) in COS-7 cells. To be noted: for mitochondrial signal after CCCP Chase (depolarization after staining) / mitochondrial accumulation after depolarizing the membrane potential with CCCP before staining: 100 nM dye 30 minutes; for mitochondrial signal after CCCP Chase (depolarization after staining): then 20 μM CCCP 30 minutes; for mitochondrial accumulation after depolarizing the membrane potential with CCCP before staining: 20 μM CCCP pre-treatment 30 minutes. The method, then:
COS-7 cells were pre-treated with media or 20 μM CCCP for 30 minutes followed by a staining step with 100 nM COMPOUND 5 or 100 nM Comparator (MitoTracker Deep Red FM) for 30 minutes in the presence/absence of 20 μM CCCP. After the staining, excessive dye was washed out with media, with or without 20 μM CCCP for 30 minutes.

In series [3] the test system is mitochondria in COS-7 cells. Put plainly: Staining of COS-7 cells at varying concentrations followed by PFA fixation, spinning disk confocal imaging. The settings on record: for toxicity at 200 nM: 30 minutes; for mitochondrial staining at low concentrations: then 4% PFA fixation; for effect of high concentration on mitochondria (fragmentation and peri-nuclear clustering suggesting toxic effects): above 200 nM. The method, then:
Both COMPOUND 5 and the Comparator show some toxicity at 200 nM. COMPOUND 5 gives nice staining at 25-100 nM.
In FIG. 4 (scale bar=10 μm), images are shown after COS-7 cells were stained for 30 minutes with indicated concentrations followed by immediate fixation with 4% PFA for 20 minutes at 37° C. Images were acquired using a spinning disk confocal microscope with identical exposure time and laser power and were processed with identical settings to allow a direct comparison.

For series [4], the system named is mitochondria in HeLa cells. Put plainly: Staining of HeLa cells at a single concentration followed by fixation. To be noted: 100 nM probe 40 minutes, then 4% PFA 10 minutes. The protocol:
In FIG. 5 (scale bar=10 μm), images are shown after HeLa cells were stained with 100 nM probe for 40 minutes, followed by fixation with 4% PFA for 10 minutes. Laser power and gain have been optimized for each individual probe in this figure.

For series [5], the system named is mitochondria in HeLa cells. Put plainly: Post-fixation staining of HeLa cells, intensity profiles compared with a Comparator added before fixation. To be noted: HeLa cells fixed with 4% PFA 20 min; COMPOUND 5 75 nM added after fixation. The method, then: COMPOUND 5 and the Comparator have distinct absorption and emission maxima. Intensity profiles (lower panel) taken across a set frame are shown for both COMPOUND 5 and Comparator.
Live HeLa cells were stained with a Comparator (250 nM, 45 min) and were then fixed (4% PFA, 20 min). After fixation, COMPOUND 5 (75 nM) was added and the cells were imaged. COMPOUND 5 and Comparator have distinct absorption and emission profiles and spill over between channels was not observed. Intensity profiles for both mitochondrial stains were taken across a set frame (lower panel) and compared.

The test system of series [6] is mitochondria in HeLa cells. Description: Co-localization with TOM20 antibody in fixed HeLa cells (probe added before fixation). The text has this:
In each experiment, an antibody for the mitochondrial marker TOM20 has also been added. Co-localization of TOM20 and mitochondrial probes is directly compared in the merged data.

Regarding `C[Si]1(C)C2=CC(=[N+]3CCC3)C=CC2=C(c2ccccc2CCl)c2ccc(N3CCC3)cc21` [COMPOUND 5, 1-(7-(azetidin-1-yl)-10-(2-(chloromethyl)phenyl)-5,5-dimethyldibenzo[b,e]silin-3(5H)-ylidene)azetidin-1-ium chloride], in series [1], the “mitochondrial localization (overlap with antibody staining)” value is recorded as “localizes specifically to the mitochondria”. Further, in series [2], the “mitochondrial signal after CCCP Chase (depolarization after staining)” value is reported as “strong mitochondrial signal” and the “mitochondrial accumulation after depolarizing the membrane potential with CCCP before staining” value is on record as “reduces the mitochondrial accumulation”. For the same compound, the “speed of mitochondrial staining relative to Comparator” value in series [2] (inferred from CCCP chase) is recorded as “more rapidly than the Comparator”. In addition, in series [3] (COS-7 cells), the “toxicity at 200 nM” value was “some toxicity”; the “effect of high concentration on mitochondria (fragmentation and peri-nuclear clustering suggesting toxic effects)” value was “mitochondrial alterations”; the “staining of non-mitochondrial structures (ER, nuclear envelope) at high concentrations” value is “stained additionally other cellular structures”. For the same compound, in series [3] (COS-7 cells, 25-100 nM, 30 min), the “toxicity at low concentrations” value is listed as “no obvious toxicity” and the “mitochondrial staining at low concentrations” value is given as “good mitochondrial signal with little background”. The “brightness compared to the Comparator” value in series [3] (fixed COS-7 cells, particularly at 25 nM and 50 nM) is “significantly improved brightness”. In addition, the “staining of mitochondria following fixation compared to a Comparator” value in series [4] is “retains clearer staining of mitochondria”. The “staining profile when added after fixation, compared with Comparator added before fixation” value in series [5] was “very high similarity in staining profile”.
As to `ClCc1ccccc1-c1c2ccc(=[N+]3CCC3)cc-2oc2cc(N3CCC3)ccc12` [COMPOUND 8, 1-(6-(azetidin-1-yl)-9-(2-(chloromethyl)phenyl)-3H-xanthen-3-ylidene)azetidin-1-ium chloride], in series [6], the “co-localization with mitochondrial marker TOM20 after fixation” value is “co-localize with the mitochondrial marker TOM20”.
Regarding `C[N+]1=C(/C=C/C=C/C=C2\N(Cc3ccc(CCl)cc3)c3ccccc3C2(C)C)C(C)(C)c2ccccc21.[Cl-]` [Comparator, MitoTracker Deep Red FM, reference compound], in series [2], the “mitochondrial signal after CCCP Chase (depolarization after staining)” value is “reversible” and the “mitochondrial accumulation after depolarizing the membrane potential with CCCP before staining” value was “reduces the mitochondrial accumulation”. For the same compound, in series [3] (COS-7 cells), the “toxicity at 200 nM” value is “some toxicity”; the “effect of high concentration on mitochondria (fragmentation and peri-nuclear clustering suggesting toxic effects)” value was “mitochondrial alterations”; the “staining of non-mitochondrial structures (ER, nuclear envelope) at high concentrations” value is on record as “stained additionally other cellular structures”. Besides, the “mitochondrial staining at low concentrations” value in series [3] (COS-7 cells, 25-100 nM, 30 min) was “decreased at low concentration”.
Consider `COC1CN(c2ccc3c(-c4ccccc4CCl)c4ccc(=[N+]5CC(OC)C5)cc-4oc3c2)C1` (centres unmarked) [COMPOUND 9, 1-(9-(2-(chloromethyl)phenyl)-6-(3-methoxyazetidin-1-yl)-3H-xanthen-3-ylidene)-3-methoxyazetidin-1-ium chloride], for which, in series [6], the “co-localization with mitochondrial marker TOM20 after fixation” value is “co-localize with the mitochondrial marker TOM20”.
